Data published in patent publication US8901071B2, “Compounds and their use” (Novabiotics Limited, priority 2010, dated 2014).
No end group written: not given here.

Experiments:
[1] = tested on: S. aureus bacterial biofilms; test: bacterial biofilm assay, Example 2 (optical density at 625 nm; FIGS. 5-6); format: cell-based; settings: biofilm grown 18 hours, 24 hours incubation, 0 to 1 mg/ml, combinations in equal concentration
Experimental: (§1) P. aeruginosa bacterial biofilms and S. aureus bacterial biofilms were grown in Mueller-Hinton agar in separate 96-well microtitre plates for 18 hours at 37 degrees Celsius. The planktonic cells and medium were then removed and the bacterial biofilms were washed three times with phosphate buffer solution at a pH of around 7. Two-fold dilutions of three different antimicrobial agents in Mueller Hinton broth were then added to the bacterial biofilms. The microtitre plates were incubated at 37 degrees Celsius for 24 hours. The medium was then transferred to a fresh microtitre plate and the optical density of the bacterial biofilm was measured at 625 nm on a microtitre plate reader (BioTek Powerwave, X S, Winooski, USA.
(§2) The antimicrobial agents tested were NP432 alone, a combination of NP432 and NM001 in equal concentration, a combination of NP432 and NP 108 in equal concentration, NP445 alone, a combination of NP445 and NM001 in equal concentration, a combination of NP445 and NP 108 in equal concentration. The antimicrobial agents were tested at concentrations of 0 to 1 mg/ml against P. aeruginosa bacterial biofilms and S. aureus bacterial biofilms.

[2] = tested on: P. aeruginosa bacterial biofilms; test: bacterial biofilm assay, Example 2 (optical density at 625 nm; FIGS. 3-4); format: cell-based; settings: biofilm grown 18 hours, 24 hours incubation, 0 to 1 mg/ml, combinations in equal concentration
Experimental: as §1, §2

[3] = tested on: mice; test: lethality of peptide in mice; format: in vivo; settings: dose of around 5 mg/kg

| Sequence | antimicrobial effect against S. aureus bacterial biofilm [1] | antimicrobial effect against P. aeruginosa bacterial biofilms [2] | lethality to mice [3] |
| --- | --- | --- | --- |
| KKFPWRLRLRYGRR (sythetic peptide) [NP445] | antimicrobial effect | antimicrobial effect |  |
| RRRFRFFFRFRRR [NP432, RRRFRFFFRFRRR] |  |  | non-lethal |
